The record followed here is patent US8536192B2, “6,7-unsaturated-7-carbamoyl substituted morphinan derivative” (priority 2005, dated 2013).

Assay [1] concerns the target opioid δ receptor (Rattus norvegicus (Rat), UniProt P33533). As to the kind of experiment: Binding assay of opioid δ receptor ([3H]-DADLE, rat cerebrum membrane). The procedure: (§1) 1) Method of Preparing Membrane Specimen for Binding Assay
(§2) A rat cerebrum (Slc: SD) which had been stored at −80° C. was used. To a cerebrum which had been weighed was added a 20-fold amount of ice-cooled 10 mM Tris-HCl buffer (pH 7.0), and the mixture was homogenized (25000 rpm, 30 seconds) with Histocolon (NITI-ON), and centrifuged at 36600×g for 20 minutes. To the resulting pellet was added 15 ml of the same buffer, and the mixture was treated with Histocolon similarly, and centrifuged. This washing work was performed two times. After centrifugation, to the resulting pellet was added 15 mL of a 50 mM Tris-HCl buffer (pH 7.4), and this was treated with Histocolon, and finally resuspended in a 10-fold amount of the same buffer, which was used as a crude membrane fraction (Life Sci. 48, 111-116, 1991). The prepared membrane specimen was frozen and stored at −80° C., and at an assay, the specimen was rapidly thawed, and diluted to about 900 μg/mL with a 50 mM Tris-HCl buffer (pH 7.4) after the centrifugation and Histocolon treatment, and was used in an experiment. For measuring a protein concentration of the membrane specimen, Micro BCA Protein Assay Kit (PIERCE) was used.
2) Method of δ Receptor Binding Assay and Data Analysis
Into a tube was placed 480 μl of a rat cerebrum membrane fraction to which 100 mM choline chloride, 3 mM MnCl2 and 100 nM DAMGO had been added, and this was incubated at 25° C. for 2 hours. […] After washing, the filter was transferred to a mini vial for liquid scintillation counter, 5 mL of a scintillator (Cleasol I) was added, this was allowed to stand overnight, and the radioactivity was measured for 3 minutes with a liquid scintillation counter Tri-Carb 2200CA (PACKARD).

The target in assay [2] is opioid μ receptor (Rattus norvegicus (Rat), UniProt P33535). As to the kind of experiment: Binding assay to opioid μ receptor ([3H]-DAMGO, rat cerebrum membrane). The procedure:
as §1
as §2, with “(pH 7.0), the mixture” for “(pH 7.0), and the mixture”, “(pH 7.4), this was” for “(pH 7.4), and this was”, “Histocolon, and this was finally resuspended” for “Histocolon, and finally resuspended”, “and at a test, the specimen” for “and at an assay, the specimen”
2) Method of μ Receptor Binding Assay and Data Analysis
After washing, the filter was transferred to a mini vial for liquid scintillation counter, 5 mL of a scintillator (Cleasol I) was added, and this was allowed to stand overnight, and the radioactivity was measured for 3 minutes with a liquid scintillation counter Tri-Carb 2200CA (PACKARD).

The test system of assay [3] is carbon powder transport of inhibitory activity by morphine. As to the kind of experiment: Mouse carbon powder transport assay (antagonism of morphine-inhibited small intestine transport). Type of assay: in vivo. The settings on record: sc, 1 h, test compound 3 mg/kg subcutaneously, 15 minutes before morphine 3 mg/kg. The procedure: 1) Preparation of Test Diet (Carbon Powder)
Using a 10 w/v % arabic gum aqueous solution, a 5 w/v % active carbon solution was prepared, which was used as a test diet.
A ddY line male mouse (5 to 6 weeks old) was used. The mouse was fasted from about 20 or more hours before assay initiation, and water was given ad lib.
The test compound was dissolved in a solvent (DMAA/Solutol/5% meglumine=15/15/70).
Morphine hydrochloride was dissolved in a physiological saline. The test compound, the above solvent and morphine were all administered at a liquid amount of 10 mL/kg.
The test compound 3 mg/kg (test compound administration group) or the solvent (solvent administration group) were subcutaneously administered and, after 15 minutes, amount of 3 mg/kg of morphine was administered to all groups. As a control group, the solvent was subcutaneously administered and, after 15 minutes, a physiological saline was administered.
The test diet 10 mL/kg was orally administered at 15 minutes after administration of morphine. At thirty minutes after administration of the test diet (60 minutes after administration of the test substance), all mice were isolated from esophagus to an ileocecal part near a stomach cardia part. A distance from pyloric part of the stomach to an ileocecal part (full length of small intestine) and a distance until a carbon powder reaching front part (carbon powder movement distance) were measured. The antagonistic activity on the carbon powder transport of inhibitory activity by morphine was calculated as MPE (%) using the following equation. Transport rate (%)=(carbon powder movement distance)/full length of small intestine (cm))×100 M.P.E. (%)={(small intestine transport rate (%) of each individual of test compound administration group−average small intestine transport rate (%) of solvent administration group)/(average small intestine transport rate (%) of control group−average small intestine transport rate (%) of solvent administration group)}×100

[4] abbreviates: [3H]-DADLE, rat cerebrum membrane fraction, read-out: Ki.
Where [5] appears, read: [3H]-DAMGO, rat cerebrum membrane fraction, read-out: Ki.

Structures are written as SMILES. Like-named read-outs stand apart in the source and are kept apart here.

For the molecule `CC(C)(NC(=O)C1=C(O)[C@@H]2Oc3c(O)ccc4c3[C@@]23CCN(CC2CC2)[C@H](C4)[C@]3(O)C1)c1nc(-c2ccccc2)no1` [Compound I-284], the results for the Ki in assay [1] (setting [4]) and in assay [2] were 0.91 nM and 1.13 nM, respectively. For the same molecule, the percent antagonism of morphine-inhibited transport (M.P.E.) at 3 mg/kg in assay [3] came to 79.6%.

Regarding `Cc1noc(C(C)(C)NC(=O)C2=C(O)[C@@H]3Oc4c(O)ccc5c4[C@@]34CCN(CC3CC3)[C@H](C5)[C@]4(O)C2)n1` [Compound I-285], the inhibition constant Ki in assay [1] came out at 5.77 nM; in assay [2] (setting [5]) it was 7.29 nM. Moreover, the percent antagonism of morphine-inhibited transport (M.P.E.) at 3 mg/kg in assay [3] was determined as 82.5%.

`COCC(C)(C)NC(=O)C1=C(O)[C@@H]2Oc3c(O)ccc4c3[C@@]23CCN(CC2CC2)[C@H](C4)[C@]3(O)C1` [Compound I-286]: the Ki in assay [1] came out at 2.46 nM; in assay [2], 14 nM. Further, the percent antagonism of morphine-inhibited transport (M.P.E.) at 3 mg/kg in assay [3] worked out at 70.6%.

For `COCC(C)(COC)NC(=O)C1=C(O)[C@@H]2Oc3c(O)ccc4c3[C@@]23CCN(CC2CC2)[C@H](C4)[C@]3(O)C1` [Compound I-288], the Ki in assay [1] worked out at 5.36 nM; in assay [2], 14.4 nM. Also, the percent antagonism of morphine-inhibited transport (M.P.E.) at 3 mg/kg in assay [3] worked out at 101%.

`CC(C)NC(=O)C1=C(NS(=O)(=O)c2ccc(F)cc2)[C@@H]2Oc3c(O)ccc4c3[C@@]23CCN(CC2CC2)[C@H](C4)[C@]3(O)C1` [Compound I-289]: the Ki in assay [1] (setting [4]) worked out at 0.47 nM; in assay [2] (setting [5]), 12.9 nM. The percent antagonism of morphine-inhibited transport (M.P.E.) at 3 mg/kg in assay [3] stood at 67%.
